Tested on: HIV-IIIb
Experiment: Test A: Antiviral Assays in MT4 Cells
Type: cell-based
Details: Human immunodeficiency virus 1, IIIB, MT4, 120 h, MT-4 cells infected with HIV-IIIb (0.004 m.o.i.), 5 days of incubation, CellTiter-Glo chemiluminescence readout; read-out: EC50
In short: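 MT-4 cells pre-infected with HIV-IIIb (0.004 m.o.i.) at 37 °C, then plated with 3-fold serially diluted compound (10 concentrations, quadruplicate, RPMI 1640/10% FBS). After 5 days at 37 °C, cell viability read by CellTiter-Glo chemiluminescence; mock-infected cells run in parallel.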

SMILES	EC50
CC(C)(C)O[C@H](C(=O)O)c1c(COc2cncnc2)cc2ccccc2c1-c1ccc(Cl)cc1 [Compound 26, (S)-2-tert-Butoxy-2-(1-(4-chlorophenyl)-3-((pyrimidin-5-yloxy)methyl)naphthalen-2-yl)acetic acid]	0.84 µM
Cc1cc2c(C#N)cc(F)cc2c(-c2ccc3c4c(ccnc24)CCO3)c1[C@H](OC(C)(C)C)C(=O)O (atropisomer, axis not shown) [Compound 154]	29 µM
Cc1cc2ccccc2c(-c2cnc3ccccc3c2)c1[C@H](OC(C)(C)C)C(=O)O [Compound 16, (S)-2-tert-Butoxy-2-(3-methyl-1-(quinolin-3-yl)naphthalen-2-yl)acetic acid]	7 µM
Cc1cc2ccc(C#CC(C)(C)N(C)C)cc2c(-c2ccc(Cl)cc2)c1C(OC(C)(C)C)C(=O)O (centres unmarked) [Compound 95, 2-tert-Butoxy-2-(1-(4-chlorophenyl)-7-(3-(dimethylamino)-3-methylbut-1-ynyl)-3-methylnaphthalen-2-yl)acetic acid]	0.38 µM
Cc1c(C(OC(C)(C)C)C(=O)O)c(-c2ccc(Cl)cc2)c2ccccc2c1-c1cnc(N)nc1 (centres unmarked) [Compound 145, 2-(4-(2-Aminopyrimidin-5-yl)-1-(4-chlorophenyl)-3-methylnaphthalen-2-yl)-2-tert-butoxyacetic acid]	0.05 µM
Cc1cc2ccc(-c3ccc(Cl)cc3)cc2c(-c2ccc(Cl)cc2)c1C(OC(C)(C)C)C(=O)O (centres unmarked) [Compound 70, 2-(1,7-Bis(4-chlorophenyl)-3-methylnaphthalen-2-yl)-2-tert-butoxyacetic acid]	8.8 µM
Cc1c(C(OC(C)(C)C)C(=O)O)c(-c2ccc(Cl)cc2)c2ccccc2c1-c1ccccc1 (centres unmarked) [Compound 136, 2-tert-Butoxy-2-(1-(4-chlorophenyl)-3-methyl-4-phenylnaphthalen-2-yl)acetic acid]	0.34 µM
CC(C)(C)O[C@H](C(=O)O)c1c(C(F)F)cc2ccccc2c1-c1ccc2c3c(ccnc13)CCO2 [Compound 32, (S)-2-tert-Butoxy-2-((R)-3-(difluoromethyl)-1-(2,3-dihydropyrano[4,3,2-de]quinolin-7-yl)naphthalen-2-yl)acetic acid]	0.086 µM
CC(C)(C)O[C@H](C(=O)O)c1c(CN2CCOCC2)cc2ccccc2c1-c1ccc(Cl)cc1 [Compound 27, (S)-2-tert-Butoxy-2-(1-(4-chlorophenyl)-3-(morpholinomethyl)naphthalen-2-yl)acetic acid]	3.5 µM
Cc1cc2ccc(C#CC3(O)CCN(C)CC3)cc2c(-c2ccc(Cl)cc2)c1C(OC(C)(C)C)C(=O)O (centres unmarked) [Compound 79, 2-tert-Butoxy-2-(1-(4-chlorophenyl)-7-((4-hydroxy-1-methylpiperidin-4-yl)ethynyl)-3-methylnaphthalen-2-yl)acetic acid]	0.089 µM
Cc1cc2ccc(CC(C)C)cc2c(-c2ccc(Cl)cc2)c1C(OC(C)(C)C)C(=O)O (centres unmarked) [Compound 94, 2-tert-Butoxy-2-(1-(4-chlorophenyl)-7-isobutyl-3-methylnaphthalen-2-yl)acetic acid]	12 µM
Cc1cc2ccc(C#CC3(N)CCCCC3)cc2c(-c2ccc(Cl)cc2)c1C(OC(C)(C)C)C(=O)O (centres unmarked) [Compound 84, 2-(7-((1-Aminocyclohexyl)ethynyl)-1-(4-chlorophenyl)-3-methylnaphthalen-2-yl)-2-tert-butoxyacetic acid]	0.014 µM
CC(=O)NC(C)(C)C#Cc1ccc2cc(C)c(C(OC(C)(C)C)C(=O)O)c(-c3ccc(Cl)cc3)c2c1 (centres unmarked) [Compound 96, 2-(7-(3-Acetamido-3-methylbut-1-ynyl)-1-(4-chlorophenyl)-3-methylnaphthalen-2-yl)-2-tert-butoxyacetic acid]	0.088 µM

Same assay, conditions: MT-4 cells infected with HIV-IIIb (0.004 m.o.i.), 5 days of incubation, CellTiter-Glo chemiluminescence readout; read-out: EC50

SMILES	EC50
Cc1cc2ccccc2c(-c2ccc3c4c(cc[n+]([O-])c24)CCO3)c1[C@H](OC(C)(C)C)C(=O)O [Compound 23, 7-((R)-2-((S)-tert-Butoxy(carboxy)methyl)-3-methylnaphthalen-1-yl)-2,3-dihydropyrano[4,3,2-de]quinoline 6-oxide]	0.024 µM

Reference: patent US9102614B2, “Naphth-2-ylacetic acid derivatives to treat AIDS” (Gilead Sciences, Inc., priority 2010, dated 2015)
